ChEMBL document CHEMBL3112480, “γ-Alkylidene-γ-lactones and isobutylpyrrol-2(5H)-ones analogues to rubrolides as inhibitors of biofilm formation by gram-positive and gram-negative bacteria” (Bioorg Med Chem Lett, 2014)
≈ marks a conversion by molar mass, not a printed value.

Tests used:
Streptococcus mutans [1] = assay: Antibacterial activity against Streptococcus mutans OMZ175 assessed as inhibition of biofilm formation at 6 uM relative to control; type: functional
Streptococcus mutans [2] = assay: Antibacterial activity against Streptococcus mutans ATCC 25175 assessed as effect on planktonic growth at 21.9 ug/ml after 20 hrs relative to control; type: functional
Streptococcus mutans [3] = assay: Antibacterial activity against Streptococcus mutans ATCC 25175 assessed as effect on planktonic growth at 43.8 ug/ml after 20 hrs relative to control; type: functional
Streptococcus mutans [4] = assay: Antibacterial activity against Streptococcus mutans ATCC 25175 assessed as effect on planktonic growth at 87.5 ug/ml after 20 hrs relative to control; type: functional
Staphylococcus aureus [5] = assay: Antibacterial activity against Staphylococcus aureus ATCC 25923 assessed as effect on planktonic growth at 0.17 ug/ml after 20 hrs relative to control; type: functional
Staphylococcus aureus [6] = assay: Antibacterial activity against Staphylococcus aureus ATCC 25923 assessed as effect on planktonic growth at 0.34 ug/ml after 20 hrs relative to control; type: functional
Staphylococcus aureus [7] = assay: Antibacterial activity against Staphylococcus aureus ATCC 25923 assessed as effect on planktonic growth at 0.68 ug/ml after 20 hrs relative to control; type: functional
Staphylococcus aureus [8] = assay: Antibacterial activity against Staphylococcus aureus ATCC 25923 assessed as effect on planktonic growth at 1.37 ug/ml after 20 hrs relative to control; type: functional
Staphylococcus aureus [9] = assay: Antibacterial activity against Staphylococcus aureus ATCC 25923 assessed as effect on planktonic growth at 5.5 ug/ml after 20 hrs relative to control; type: functional
Staphylococcus aureus [10] = assay: Antibacterial activity against Staphylococcus aureus ATCC 25923 assessed as effect on planktonic growth at 2.73 ug/ml after 20 hrs relative to control; type: functional
Staphylococcus aureus [11] = assay: Antibacterial activity against Staphylococcus aureus ATCC 25923 assessed as effect on planktonic growth at 10.9 ug/ml after 20 hrs relative to control; type: functional
Staphylococcus aureus [12] = assay: Antibacterial activity against Staphylococcus aureus ATCC 25923 assessed as effect on planktonic growth at 21.9 ug/ml after 20 hrs relative to control; type: functional
Staphylococcus aureus [13] = assay: Antibacterial activity against Staphylococcus aureus ATCC 25923 assessed as effect on planktonic growth at 43.8 ug/ml after 20 hrs relative to control; type: functional
Staphylococcus aureus [14] = assay: Antibacterial activity against Staphylococcus aureus ATCC 25923 assessed as effect on planktonic growth at 87.5 ug/ml after 20 hrs relative to control; type: functional
Pseudomonas aeruginosa [15] = assay: Antibacterial activity against Pseudomonas aeruginosa ATCC 27853 assessed as effect on planktonic growth at 0.17 ug/ml after 20 hrs relative to control; type: functional
Pseudomonas aeruginosa [16] = assay: Antibacterial activity against Pseudomonas aeruginosa ATCC 27853 assessed as effect on planktonic growth at 0.34 ug/ml after 20 hrs relative to control; type: functional
Pseudomonas aeruginosa [17] = assay: Antibacterial activity against Pseudomonas aeruginosa ATCC 27853 assessed as effect on planktonic growth at 0.68 ug/ml after 20 hrs relative to control; type: functional
Pseudomonas aeruginosa [18] = assay: Antibacterial activity against Pseudomonas aeruginosa ATCC 27853 assessed as effect on planktonic growth at 1.37 ug/ml after 20 hrs relative to control; type: functional
Pseudomonas aeruginosa [19] = assay: Antibacterial activity against Pseudomonas aeruginosa ATCC 27853 assessed as effect on planktonic growth at 2.73 ug/ml after 20 hrs relative to control; type: functional
Pseudomonas aeruginosa [20] = assay: Antibacterial activity against Pseudomonas aeruginosa ATCC 27853 assessed as effect on planktonic growth at 5.5 ug/ml after 20 hrs relative to control; type: functional
Pseudomonas aeruginosa [21] = assay: Antibacterial activity against Pseudomonas aeruginosa ATCC 27853 assessed as effect on planktonic growth at 10.9 ug/ml after 20 hrs relative to control; type: functional
Pseudomonas aeruginosa [22] = assay: Antibacterial activity against Pseudomonas aeruginosa ATCC 27853 assessed as effect on planktonic growth at 21.9 ug/ml after 20 hrs relative to control; type: functional
Pseudomonas aeruginosa [23] = assay: Antibacterial activity against Pseudomonas aeruginosa ATCC 27853 assessed as effect on planktonic growth at 43.8 ug/ml after 20 hrs relative to control; type: functional
Pseudomonas aeruginosa [24] = assay: Antibacterial activity against Pseudomonas aeruginosa ATCC 27853 assessed as effect on planktonic growth at 87.5 ug/ml after 20 hrs relative to control; type: functional
[25] = system: Staphylococcus epidermidis; assay: Antibacterial activity against Staphylococcus epidermidis ATCC 35547 assessed as effect on planktonic growth at 0.17 ug/ml after 20 hrs relative to control; type: functional
[26] = system: Staphylococcus epidermidis; assay: Antibacterial activity against Staphylococcus epidermidis ATCC 35547 assessed as effect on planktonic growth at 0.34 ug/ml after 20 hrs relative to control; type: functional
[27] = system: Staphylococcus epidermidis; assay: Antibacterial activity against Staphylococcus epidermidis ATCC 35547 assessed as effect on planktonic growth at 0.68 ug/ml after 20 hrs relative to control; type: functional
[28] = system: Staphylococcus epidermidis; assay: Antibacterial activity against Staphylococcus epidermidis ATCC 35547 assessed as effect on planktonic growth at 1.37 ug/ml after 20 hrs relative to control; type: functional
[29] = system: Staphylococcus epidermidis; assay: Antibacterial activity against Staphylococcus epidermidis ATCC 35547 assessed as effect on planktonic growth at 2.73 ug/ml after 20 hrs relative to control; type: functional
[30] = system: Staphylococcus epidermidis; assay: Antibacterial activity against Staphylococcus epidermidis ATCC 35547 assessed as effect on planktonic growth at 5.5 ug/ml after 20 hrs relative to control; type: functional
[31] = system: Staphylococcus epidermidis; assay: Antibacterial activity against Staphylococcus epidermidis ATCC 35547 assessed as effect on planktonic growth at 10.9 ug/ml after 20 hrs relative to control; type: functional
[32] = system: Staphylococcus epidermidis; assay: Antibacterial activity against Staphylococcus epidermidis ATCC 35547 assessed as effect on planktonic growth at 21.9 ug/ml after 20 hrs relative to control; type: functional
[33] = system: Staphylococcus epidermidis; assay: Antibacterial activity against Staphylococcus epidermidis ATCC 35547 assessed as effect on planktonic growth at 43.8 ug/ml after 20 hrs relative to control; type: functional
[34] = system: Staphylococcus epidermidis; assay: Antibacterial activity against Staphylococcus epidermidis ATCC 35547 assessed as effect on planktonic growth at 87.5 ug/ml after 20 hrs relative to control; type: functional
Staphylococcus aureus [35] = assay: Antibacterial activity against Staphylococcus aureus ATCC 25923 assessed as inhibition of biofilm formation at 44 ug/ml after 20 hrs by crystal-violet staining method relative to control; type: functional; conditions: ATCC 25923, 20 h
Pseudomonas aeruginosa [36] = assay: Antibacterial activity against Pseudomonas aeruginosa ATCC 27853 assessed as inhibition of biofilm formation after 20 hrs by crystal-violet staining method; type: functional, organism-based; conditions: for IC50: ATCC 27853, 20 h
[37] = system: Staphylococcus epidermidis; assay: Antibacterial activity against Staphylococcus epidermidis ATCC 35547 assessed as inhibition of biofilm formation after 20 hrs by crystal-violet staining method; type: functional, organism-based; conditions: for IC50: ATCC 35547, 20 h
Streptococcus mutans [38] = assay: Antibacterial activity against Streptococcus mutans ATCC 25175 assessed as effect on planktonic growth at 0.17 ug/ml after 20 hrs relative to control; type: functional
Streptococcus mutans [39] = assay: Antibacterial activity against Streptococcus mutans ATCC 25175 assessed as effect on planktonic growth at 0.34 ug/ml after 20 hrs relative to control; type: functional
Streptococcus mutans [40] = assay: Antibacterial activity against Streptococcus mutans ATCC 25175 assessed as effect on planktonic growth at 0.68 ug/ml after 20 hrs relative to control; type: functional
Streptococcus mutans [41] = assay: Antibacterial activity against Streptococcus mutans ATCC 25175 assessed as effect on planktonic growth at 1.37 ug/ml after 20 hrs relative to control; type: functional
Streptococcus mutans [42] = assay: Antibacterial activity against Streptococcus mutans ATCC 25175 assessed as effect on planktonic growth at 2.73 ug/ml after 20 hrs relative to control; type: functional
Streptococcus mutans [43] = assay: Antibacterial activity against Streptococcus mutans ATCC 25175 assessed as effect on planktonic growth at 5.5 ug/ml after 20 hrs relative to control; type: functional
Streptococcus mutans [44] = assay: Antibacterial activity against Streptococcus mutans ATCC 25175 assessed as effect on planktonic growth at 10.9 ug/ml after 20 hrs relative to control; type: functional
Staphylococcus aureus [45] = assay: Antibacterial activity against Staphylococcus aureus ATCC 25923 assessed as inhibition of biofilm formation after 20 hrs by crystal-violet staining method; type: functional, organism-based; conditions: ATCC 25923, 20 h

O=C1C=C/C(=C/Br)O1
inhibition at 6 µM (Streptococcus mutans [1]): 26%

COc1ccc(C)cc1C1=C(Br)C(=O)N(CC(C)C)/C1=C/c1ccccc1Cl
Activity (Streptococcus mutans [2]): 13.8% | Activity (Streptococcus mutans [3]): 20.1% | Activity (Streptococcus mutans [4]): 20.1% | Activity (Staphylococcus aureus [5]): -6.6% | Activity (Staphylococcus aureus [6]): -6.6% | Activity (Staphylococcus aureus [7]): -3.6% | Activity (Staphylococcus aureus [8]): -4.6% | Activity (Staphylococcus aureus [9]): -9.4% | Activity (Staphylococcus aureus [10]): -10.4% | Activity (Staphylococcus aureus [11]): -11.2% | Activity (Staphylococcus aureus [12]): -13.2% | Activity (Staphylococcus aureus [13]): 4.6% | Activity (Staphylococcus aureus [14]): 20.1% | Activity (Pseudomonas aeruginosa [15]): 1.2% | Activity (Pseudomonas aeruginosa [16]): 0.6% | Activity (Pseudomonas aeruginosa [17]): -2.7% | Activity (Pseudomonas aeruginosa [18]): -10% | Activity (Pseudomonas aeruginosa [19]): -18.8% | Activity (Pseudomonas aeruginosa [20]): -17.8% | Activity (Pseudomonas aeruginosa [21]): -15% | Activity (Pseudomonas aeruginosa [22]): -13.2% | Activity (Pseudomonas aeruginosa [23]): -7.7% | Activity (Pseudomonas aeruginosa [24]): -4.3% | Activity [25]: -2.9% | Activity [26]: 3.6% | Activity [27]: -6.1% | Activity [28]: -2.3% | Activity [29]: 0.4% | Activity [30]: -1% | Activity [31]: 6% | Activity [32]: 5.9% | Activity [33]: 26.9% | Activity [34]: 23.5% | inhibition at 44 µg/mL (Staphylococcus aureus [35]): 34% | inhibition (Pseudomonas aeruginosa [36]): Dose-dependent effect | IC50 (Pseudomonas aeruginosa [36]): 1.4 µg/mL (≈ 3.04 µM) | inhibition [37]: Dose-dependent effect | IC50 [37]: > 87.5 µg/mL | Activity (Streptococcus mutans [38]): 11.9% | Activity (Streptococcus mutans [39]): 18.1% | Activity (Streptococcus mutans [40]): 9% | Activity (Streptococcus mutans [41]): 20.6% | Activity (Streptococcus mutans [42]): 24.3% | Activity (Streptococcus mutans [43]): 25.4% | Activity (Streptococcus mutans [44]): 18.6%

COc1ccc(Cl)cc1C1=C(Br)C(=O)N(CC(C)C)C1(O)Cc1ccccc1Br (configuration not stated)
Activity (Streptococcus mutans [2]): 15.4% | Activity (Streptococcus mutans [3]): 24.4% | Activity (Streptococcus mutans [4]): 24.4% | Activity (Staphylococcus aureus [5]): 8.4% | Activity (Staphylococcus aureus [6]): 6.2% | Activity (Staphylococcus aureus [7]): 3.7% | Activity (Staphylococcus aureus [8]): 5.9% | Activity (Staphylococcus aureus [9]): -9% | Activity (Staphylococcus aureus [10]): -1.3% | Activity (Staphylococcus aureus [11]): -2.4% | Activity (Staphylococcus aureus [12]): 4.2% | Activity (Staphylococcus aureus [13]): 12.8% | Activity (Staphylococcus aureus [14]): 14.3% | Activity (Pseudomonas aeruginosa [15]): -7.2% | Activity (Pseudomonas aeruginosa [16]): -9.6% | Activity (Pseudomonas aeruginosa [17]): -6.4% | Activity (Pseudomonas aeruginosa [18]): -5.6% | Activity (Pseudomonas aeruginosa [19]): -13.8% | Activity (Pseudomonas aeruginosa [20]): -13.5% | Activity (Pseudomonas aeruginosa [21]): -14.9% | Activity (Pseudomonas aeruginosa [22]): -9.2% | Activity (Pseudomonas aeruginosa [23]): 5.7% | Activity (Pseudomonas aeruginosa [24]): 24.8% | Activity [25]: 9.4% | Activity [26]: 2.6% | Activity [27]: 9.4% | Activity [28]: 7.8% | Activity [29]: 21.5% | Activity [30]: 6.4% | Activity [31]: 4.2% | Activity [32]: 13.2% | Activity [33]: 28.8% | Activity [34]: 17.6% | IC50 (Staphylococcus aureus [45]): 6.8 µM | inhibition at 44 µg/mL (Staphylococcus aureus [35]): 53.1% | inhibition (Pseudomonas aeruginosa [36]): Dose-dependent effect | IC50 (Pseudomonas aeruginosa [36]): > 87.5 µg/mL | inhibition [37]: Dose-dependent effect | IC50 [37]: 83.4 µg/mL (≈ 153 µM) | Activity (Streptococcus mutans [38]): -16.1% | Activity (Streptococcus mutans [39]): -13.8% | Activity (Streptococcus mutans [40]): -7.7% | Activity (Streptococcus mutans [41]): 3.5% | Activity (Streptococcus mutans [42]): 1.6% | Activity (Streptococcus mutans [43]): 9% | Activity (Streptococcus mutans [44]): 9%
